From ChEMBL document CHEMBL6083214, “Synthesis, biochemical screening and in-silico investigations of arylsulfonamides bearing linear and cyclic tails” (Bioorg Med Chem Lett, 2024)

Legend:
Carbonic anhydrase 2 = Carbonic anhydrase 2 (Homo sapiens, UniProt P00918)
Description: Inhibition of human carbonic anhydrase II assessed as inhibition constant by stopped-flow carbon dioxide hydrase assay

Carbonic anhydrase 9 = Carbonic anhydrase 9 (Homo sapiens, UniProt Q16790)
Description: Inhibition of human carbonic anhydrase IX assessed as inhibition constant by stopped-flow carbon dioxide hydrase assay

Carbonic anhydrase 1 = Carbonic anhydrase 1 (Homo sapiens, UniProt P00915)
Description: Inhibition of human carbonic anhydrase I assessed as inhibition constant by stopped-flow carbon dioxide hydrase assay

Carbonic anhydrase 12 = Carbonic anhydrase 12 (Homo sapiens, UniProt O43570)
Chain of Carbonic anhydrase 12 (O43570 whole entry): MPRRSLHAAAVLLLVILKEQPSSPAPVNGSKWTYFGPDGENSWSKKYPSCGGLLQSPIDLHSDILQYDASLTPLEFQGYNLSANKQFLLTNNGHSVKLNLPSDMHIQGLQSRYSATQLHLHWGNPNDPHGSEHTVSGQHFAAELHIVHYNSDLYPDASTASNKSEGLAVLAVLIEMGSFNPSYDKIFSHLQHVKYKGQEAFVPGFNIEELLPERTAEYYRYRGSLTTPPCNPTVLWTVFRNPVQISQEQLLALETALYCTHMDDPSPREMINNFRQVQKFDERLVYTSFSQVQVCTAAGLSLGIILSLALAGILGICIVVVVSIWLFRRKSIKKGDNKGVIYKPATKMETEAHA
Description: Inhibition of human carbonic anhydrase XII assessed as inhibition constant by stopped-flow carbon dioxide hydrase assay

Chain of Carbonic anhydrase 1 (P00915 whole entry): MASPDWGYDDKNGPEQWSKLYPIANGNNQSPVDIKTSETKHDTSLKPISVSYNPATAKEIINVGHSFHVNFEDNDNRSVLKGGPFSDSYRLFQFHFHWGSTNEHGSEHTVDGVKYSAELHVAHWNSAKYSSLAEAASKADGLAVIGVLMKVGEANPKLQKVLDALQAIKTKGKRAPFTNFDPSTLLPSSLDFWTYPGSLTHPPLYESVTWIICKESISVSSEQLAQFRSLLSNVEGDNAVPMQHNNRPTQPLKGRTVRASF

NS(=O)(=O)c1ccc(/N=C/c2ccc([N+](=O)[O-])cc2)cc1
Ki (Carbonic anhydrase 2): 0.0257 µM

NS(=O)(=O)c1ccc(N2C(=O)CCSC2c2ccc(Cl)cc2)cc1 (racemic)
Ki (Carbonic anhydrase 2): 0.009 µM
Ki (Carbonic anhydrase 9): 0.0199 µM
Ki (Carbonic anhydrase 1): 0.0624 µM
Ki (Carbonic anhydrase 12): 0.0082 µM

N#Cc1cccc(C2SCCC(=O)N2c2ccc(S(N)(=O)=O)cc2)c1 (racemic)
Ki (Carbonic anhydrase 2): 0.0146 µM
Ki (Carbonic anhydrase 9): 0.0189 µM
Ki (Carbonic anhydrase 1): 0.0072 µM
Ki (Carbonic anhydrase 12): 0.0611 µM

NS(=O)(=O)c1ccc(N2C(=O)CCSC2c2ccc([N+](=O)[O-])cc2)cc1 (racemic)
Ki (Carbonic anhydrase 2): 0.0801 µM
Ki (Carbonic anhydrase 9): 0.0548 µM
Ki (Carbonic anhydrase 1): 0.0829 µM
Ki (Carbonic anhydrase 12): 0.0071 µM

NS(=O)(=O)c1ccc(N2C(=O)CCSC2c2ccc(F)cc2)cc1 (racemic)
Ki (Carbonic anhydrase 2): 0.0078 µM
Ki (Carbonic anhydrase 9): 0.0746 µM
Ki (Carbonic anhydrase 1): 0.0136 µM
Ki (Carbonic anhydrase 12): 0.0094 µM

N#Cc1ccc(C2SCCC(=O)N2c2ccc(S(N)(=O)=O)cc2)cc1 (racemic)
Ki (Carbonic anhydrase 2): 0.0082 µM
Ki (Carbonic anhydrase 9): 0.0037 µM
Ki (Carbonic anhydrase 1): 0.0086 µM
Ki (Carbonic anhydrase 12): 0.0899 µM

NS(=O)(=O)c1ccc(/N=C/c2ccc(Cl)cc2)cc1
Ki (Carbonic anhydrase 2): 0.0226 µM
